# Experimental data from patent US12180197B2, “GLP-1R modulating compounds” (Gilead Sciences, Inc., priority 2021, dated 2024).
# Target: GLP-1R (Homo sapiens, UniProt P43220)
# Experiment: GLP-1R Activation - cAMP Assay 2
# Assay type: cell-based
# Settings: cAMP increase in CHO cells stably expressing GLP-1R; pre-spotted agonists; assay buffer or 100% Human Plasma (not given); 30 minutes
# Experimental: GLP-1R Activation—cAMP Assay 2
# GLP-1R activation by small molecule agonists is quantified by measuring cAMP increase in CHO cells stably expressing GLP-1R (MultiSpan product #C1267-1a). 50 nL of agonists are pre-spotted in a 10 point dose response onto 384-well plate (Corning product #CL3826) using the Labcyte Echo System. The cells are harvested and plated in assay buffer (HBSS (Corning product #21-023-CV) with 20 mM Hepes (Gibco product #15630-080) and 0.1% BSA (Rockland Immunochemicals product #BSA-1000)) or 100% Human Plasma (Innovative Research product #50-643-396) at 1,000 cells/well, 10 μL/well, onto the pre-spotted plates. The cells are then incubated for 30 minutes at 37° C., 5% CO2. cAMP concentration increase is then detected using Cisbio's cAMP Gs Dynamic Kit (product #62AM4PEC) according to the manufacturer's protocol. The response is plotted against the log of the agonist concentration and fitted to a sigmoidal equation to determine the EC50.
# Chain of GLP-1R (P43220 24-463): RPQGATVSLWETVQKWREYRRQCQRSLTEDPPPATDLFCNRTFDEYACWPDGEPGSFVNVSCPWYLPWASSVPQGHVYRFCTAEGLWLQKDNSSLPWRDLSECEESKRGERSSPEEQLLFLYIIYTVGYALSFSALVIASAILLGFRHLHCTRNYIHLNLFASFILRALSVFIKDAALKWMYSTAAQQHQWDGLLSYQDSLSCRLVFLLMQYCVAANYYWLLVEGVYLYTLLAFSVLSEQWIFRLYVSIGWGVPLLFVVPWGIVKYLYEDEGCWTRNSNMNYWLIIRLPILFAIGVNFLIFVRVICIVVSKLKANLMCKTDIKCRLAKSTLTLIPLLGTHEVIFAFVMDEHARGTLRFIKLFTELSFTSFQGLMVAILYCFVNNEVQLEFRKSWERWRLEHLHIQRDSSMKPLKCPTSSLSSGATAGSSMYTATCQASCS
row,EC50 [nM],SMILES
1,7.2,"COCCn1c(CN2CCC(c3cccc(OCc4ccc(-c5cnn(C)c5)cc4F)n3)CC2)nc2ccc(C(=O)O)cc21 [Example 21, 2-((4-(6-((2-fluoro-4-(1-methyl-1H-pyrazol-4-yl)benzyl)oxy)pyridin-2-yl)piperidin-1-yl)methyl)-1-(2-methoxyethyl)-1H-benzo[d]imidazole-6-carboxylic acid]"
2,24.6,"COCCn1c(CN2CCC(c3cccc(OCc4ccc(-c5cn(C)nn5)cc4F)n3)CC2)nc2ccc(C(=O)O)cc21 [Example 17, 2-((4-(6-((2-fluoro-4-(1-methyl-1H-1,2,3-triazol-4-yl)benzyl)oxy)pyridin-2-yl)piperidin-1-yl)methyl)-1-(2-methoxyethyl)-1H-benzo[d]imidazole-6-carboxylic acid]"
3,0.2,"O=C(O)c1ccc2nc(CN3CCC(c4cccc(OCc5ccc(-c6cnn(C(F)F)c6)cc5F)n4)CC3)n(C[C@@H]3CCO3)c2c1 [Example 19, (S)-2-((4-(6-((4-(1-(difluoromethyl)-1H-pyrazol-4-yl)-2-fluorobenzyl)oxy)pyridin-2-yl)piperidin-1-yl)methyl)-1-(oxetan-2-ylmethyl)-1H-benzo[d]imidazole-6-carboxylic acid]"
4,3.1,"Cn1cc(C#Cc2ccc(COc3cccc(C4CCN(Cc5nc6ccc(C(=O)O)cc6n5C[C@@H]5CCO5)CC4)n3)c(F)c2)cn1 [Example 22, 2-[[4-[6-[[2-fluoro-4-[2-(1-methylpyrazol-4-yl)ethynyl]phenyl]methoxy]-2-pyridyl]-1-piperidyl]methyl]-3-[[(2S)-oxetan-2-yl]methyl]benzimidazole-5-carboxylic acid]"
5,1.3,"O=C(O)c1ccc2nc(CN3CCC(c4cccc(OCc5ccc(-n6cc(C7CC7)nn6)cc5F)n4)CC3)n(C[C@@H]3CCO3)c2c1 [Example 40, 2-[[4-[6-[[4-(4-cyclopropyltriazol-1-yl)-2-fluoro-phenyl]methoxy]-2-pyridyl]-1-piperidyl]methyl]-3-[[(2S)-oxetan-2-yl]methyl]benzimidazole-5-carboxylic acid]"
6,1.9,"O=C(O)c1ccc2nc(CN3CCC(c4cccc(OCc5ccc(-c6cnc(C7CC7)o6)cc5F)n4)CC3)n(C[C@@H]3CCO3)c2c1 [Example 20, (S)-2-((4-(6-((4-(2-cyclopropyloxazol-5-yl)-2-fluorobenzyl)oxy)pyridin-2-yl)piperidin-1-yl)methyl)-1-(oxetan-2-ylmethyl)-1H-benzo[d]imidazole-6-carboxylic acid]"
7,1.5,"Cn1cc(-c2ccc(COc3cccc(C4CCN(Cc5nc6ccc(C(=O)O)cc6n5C[C@@H]5CCO5)CC4)n3)c(F)c2)nn1 [Example 18, (S)-2-((4-(6-((2-fluoro-4-(1-methyl-1H-1,2,3-triazol-4-yl)benzyl)oxy)pyridin-2-yl)piperidin-1-yl)methyl)-1-(oxetan-2-ylmethyl)-1H-benzo[d]imidazole-6-carboxylic acid]"
8,0.5,"Cn1cc(-c2ccc(COc3cccc(C4CCN(Cc5nc6ccc(C(=O)O)cc6n5C[C@@H]5CCO5)CC4)n3)c(F)c2)cn1 [Example 15, 2-[[4-[6-[[2-fluoro-4-(1-methylpyrazol-4-yl)phenyl]methoxy]-2-pyridyl]-1-piperidyl]methyl]-3-[[(2S)-oxetan-2-yl]methyl]benzimidazole-5-carboxylic acid]"
